Read-outs that look alike come from different tables or passages of the source. Peptide text beside a SMILES is read from it.
How the values were obtained:
H. alvei = format: cell-based, Hafnia alvei
Protocol: To verify the inhibitory effect of AMPs secreted by honeybees on H. alvei, we performed an in vitro AMP resistance assay (Table S2 in the supplemental material). A. mellifera expresses two dominant apidaecin isoforms (Ia, Ib) at a ratio of approximately 1 : 20 ([31]). […] However, low concentration (8–16 μg/ml) of apidaecin-1a and 1b inhibited the growth of H. alvei, and the pathogen was slightly more resistant to apidaecin Ia than to Ib.
To test the activity of AMPs against H. alvei, growth inhibition assays in liquid media were performed using 50% diluted HIA media. AMPs synthesized by GL Biochem and Sangon Biotech were serially diluted in 96-well plates to obtain concentrations of 0.5 to 512 µg/ml. Overnight grown H. alvei cultures from HIA media were diluted to 1 × 10^6 CFU/ml in 50% Heart Infusion Broth. Optical density was recorded after 24 h of incubation at 35°C, 5% CO2.

[1] = test system: honeybees exposed to H. alvei; experiment: H. alvei infection survival assay; format: in vivo, Apis mellifera; conditions: adult worker bees fed 450 μg/ml tetracycline in sucrose syrup, then orally exposed to H. alvei SMH01 for 24 h; N = 30 bees per group; Mantel-Cox test, P < 0.05
Protocol: Using in vivo virulence assays, we first explored whether H. alvei is pathogenic to adult honeybees. One H. alvei strain SMH01 was isolated from the worker bee gut. Then we investigated if the strain contributes to increased mortality of bees with normal or disturbed gut microbiota. Adult worker bees were collected from a brood frame in the hive and were treated with or without tetracycline. After introduction in the lab, groups of bees were fed filter-sterilized sucrose syrup (controls) or tetracycline suspended in the diet (Tet) for 5 days (Fig. 1A). Then we challenged bees with H. alvei SMH01. Bees were orally exposed to H. alvei in their food for 24 h. […] To confirm the pathogenicity of H. alvei to honeybees, we performed histology of honeybee guts exposed to H. alvei. […] Damaged tissue presented barely preserved mucosal architecture of the rectum in H. alvei-infected bees (Fig. 1C and D).
Approximately 200 adult worker bees were collected from brood frame from the hive kept at Miyun County, Beijing (March 2019). The bees were immobilized at 4°C and were divided into two cohorts (control and tetracycline treatment) distributed to cup cages as previously described ([11]). The cup cages were maintained in an incubator at 35°C, with humidity of 50%. Each cohort has five replicating cup cages containing ∼20 bees in each cup. […]

[2] = H. alvei 1 × 10^6 CFU/ml in 50% Heart Infusion Broth, optical density after 24 h at 35°C, 5% CO2

In the case of hymenoptaecin, the MIC (H. alvei; H. alvei 1 × 10^6 CFU/ml in 50% Heart Infusion Broth, AMPs serially diluted 0.5 to 512 µg/ml in 96-well plates, optical density after 24 h at 35°C, 5% CO2) is reported as greater than 512 µg/mL.

With `CN(C)[C@@H]1C(O)=C(C(N)=O)C(=O)[C@@]2(O)C(O)=C3C(=O)c4c(O)cccc4[C@@](C)(O)[C@H]3C[C@@H]12` [Tetracycline, tetracycline] the “survivorship of honeybees after exposure to H. alvei” value [1] was “reduced survivorship”.

For `CC[C@H](C)[C@H](NC(=O)[C@H](CCCCN)NC(=O)[C@@H]1CCCN1C(=O)[C@H](CC(N)=O)NC(=O)[C@H](Cc1ccccc1)NC(=O)[C@@H]1CCCN1C(=O)CNC(=O)[C@H](CCC(N)=O)NC(=O)CNC(=O)[C@@H]1CCCN1C(=O)[C@H](Cc1ccccc1)NC(=O)[C@@H](NC(=O)[C@@H]1CCCN1C(=O)[C@H](Cc1ccccc1)NC(=O)[C@@H]1CCCN1C(=O)[C@H](CCCNC(=N)N)NC(=O)[C@H](CCCNC(=N)N)NC(=O)CNC(=O)[C@@H]1CCCN1C(=O)[C@H](CCC(N)=O)NC(=O)[C@@H]1CCCN1C(=O)[C@@H](NC(=O)[C@H](CC(N)=O)NC(=O)[C@@H]1CCCN1C(=O)[C@H](CC(C)C)NC(=O)[C@@H]1CCCN1C(=O)[C@@H](NC(=O)[C@@H](N)Cc1ccc(O)cc1)C(C)C)[C@@H](C)CC)[C@@H](C)O)C(=O)N[C@@H](CCCCN)C(=O)N[C@@H](Cc1c[nH]c2ccccc12)C(=O)N1CCC[C@H]1C(=O)N[C@@H](CCC(N)=O)C(=O)NCC(=O)N[C@@H](Cc1ccc(O)cc1)C(=O)O` [abaecin] (H-YVPLPNIPQPGRRPFPTFPGQGPFNPKIKWPQGY-OH; N-terminus and C-terminus assumed), the MIC (H. alvei; 24 h) was greater than 512 µg/mL.

apidaecin-1a was tested, and the “low concentration that inhibited the growth of H. alvei” value (H. alvei; [2]) was 8 to 16 µg/mL.

With apidaecin-1b the “low concentration that inhibited the growth of H. alvei” value (H. alvei; [2]) was 8 to 16 µg/mL and the “concentration with a profound inhibition on the growth of H. alvei” value (H. alvei; in vitro growth inhibition, 24 h, 35°C, 5% CO2) was no less than 4 µg/mL.

Reference: PMC8729767, “Specific Strains of Honeybee Gut Lactobacillus Stimulate Host Immune System to Protect against Pathogenic Hafnia alvei” (Microbiology Spectrum, 2022)
